From paper PMC12257413, “Discovery of a Novel sp^3‑Rich M1 Positive Allosteric Modulators (PAMs) Chemotype via Scaffold Hopping” (ACS Medicinal Chemistry Letters, 2025)

Experiment: Brain to plasma ratio (PK/PBL cassette)
Type: in vivo
Details: rat
Procedure: In vivo DMPK experimental:
Determination of brain to plasma ratio:
Sample Analysis: Concentrations in plasma and brain homogenates were quantified by liquid chromatography tandem mass spectrometry (LC-MS/MS). Whole brains were homogenized in 3 mL of 70:30 IPA:water in a mini bead beater for 3 min, and centrifuged at 3,500 g for 5 min. 5 uL of the supernatant was diluted in 15 uL of blank plasma for quantification of the analytes. Plasma samples were centrifuged at 3,500 g for 5 min. A standard curve was generated by diluting the analytes DMSO stocks with blank plasma to obtain a final concentration of 10,000 ng/ml followed by a serial dilution down to 0.5 ng/ml. […]
Plasma and brain tissue samples originating from in vivo studies were analyzed by electrospray ionization using an AB Sciex Q-TRAP 5500 (Foster City, CA) that was coupled to a Shimadzu LC-20AD pump (Columbia, MD) and a Leap Technologies CTC PAL auto-sampler (Carrboro, NC). […]
transitioning to 10% B over 0.05 min. […] All data were analyzed using AB Sciex Analyst 1.5.1 software.
Brain plasma concentration ratio (Kp) was calculated by dividing brain concentration by plasma concentration for each animal. Unbound brain to unbound plasma concentration ratio (Kp,uu) is calculated using the following formula: Kp,uu = (Brain ng/g x brain fu)/(plasma ng/ml x plasma fu).

Kp | Compound
0.63 | Cn1cc(-c2ccc(Cc3cc(C(=O)N[C@H]4CCCC[C@@H]4O)nn3C3CCCC3)cc2)cn1 [17k]
0.12 | Cn1cc(-c2ccc(Cc3cc(C(=O)N[C@H]4CCOC[C@@H]4O)nn3C3CCCC3)cc2)cn1 [17g]
